According to patent US11291671B2, “Solid drug implants for intracochlear delivery of therapeutics for the treatment of Otic disorders” (O-Ray Pharma, Inc., priority 2012, dated 2022):

Columns and labels:
[1] = test system: patients; conditions: cited from earlier work
[2] = test system: guinea pig cochleae; assay: Intracochlear fluticasone proprionate for otoprotection of cisplatin dependent hearing loss, DPOAE; format: in vivo; conditions: 14 days after cisplatin application, no implant
Source text: Surgery: Albino guinea pigs were used for the single dose intracochlear implantation experiment. The guinea pigs received a single implant in one of their ears, and the other ear was used as internal control. Under general anesthesia, a postauricular incision was made over the bulla in the experimental ear. A small hole was drilled through the bulla using a posterior approach. The ear was positioned with the round window facing horizontally and superiorly. A 32-gauge needle was used to puncture the round window and the particle was put in contact with the perilymph in the scala tympani. A blood drop was placed over the round window injection site to avoid leakage of perilymphatic fluids and a suture was used to close the wound. DPOAE (2f1-f2) Input/output functions were recorded. Response amplitude was recorded as a function of L2 (L1-L2=10 dB); primaries incremented together in 5 dB steps (from 20 to 80 dB SPL) spanning the frequency range f2=5.6-45.2 kHz (f2/f1=1.2). […] Higher DPOAE reading indicates better hearing. Error bars indicate Standard Error. […] The study design is as follows: • Each animal: one ear implanted with extended release fluticasone particle (“implant ear”), other ear served as internal control (“control ear”). • Hearing was assessed via click (broad frequency) ABRs and DPOAE

[3] = test system: guinea pig cochleae; assay: Intracochlear fluticasone proprionate for otoprotection of cisplatin dependent hearing loss, click ABR threshold; format: in vivo; conditions: control ear (no implant), day 28, after cisplatin; baseline day 14 23.9±2.3 dB; P≤0.0001
Source text: Surgery: Albino guinea pigs were used for the single dose intracochlear implantation experiment. The guinea pigs received a single implant in one of their ears, and the other ear was used as internal control. Under general anesthesia, a postauricular incision was made over the bulla in the experimental ear. A small hole was drilled through the bulla using a posterior approach. The ear was positioned with the round window facing horizontally and superiorly. A 32-gauge needle was used to puncture the round window and the particle was put in contact with the perilymph in the scala tympani. A blood drop was placed over the round window injection site to avoid leakage of perilymphatic fluids and a suture was used to close the wound. Auditory Measurements; see FIGS. 5A and 5B: Animals were anesthetized for auditory testing. […] Lower ABR LS Means reading indicates better hearing. Error bars indicate Standard Error. Study Design: Particles were created and implanted into guinea pig cochleae as described in Examples 1-2. The study design is as follows: • Each animal: one ear implanted with extended release fluticasone particle (“implant ear”), other ear served as internal control (“control ear”). • Hearing was assessed via click (broad frequency) ABRs and DPOAE

[H]/N=C(/N)N[C@H]1[C@H](O)[C@@H](O)[C@H](O[C@@H]2O[C@@H](C)[C@](O)(C=O)[C@H]2O[C@@H]2O[C@@H](CO)[C@H](O)[C@@H](O)[C@@H]2NC)[C@@H](N/C(N)=N\[H])[C@@H]1O [streptomycin]
Patients displaying some vestibular impairment ([1]; one gram daily for 60 to 120 days): 25%
Incidence of vestibular impairment ([1]; two grams per day): 75%

N.N.[Cl][Pt][Cl] [cisplatin, cis-diammine-dichloroplatinum(II)]
DPOAE responses, control ears [2]: absent
ABR threshold, control ears following cisplatin treatment at day 28 [3]: 40.7±2.5 dB
